Source: patent publication US20240366612A1, “COMPOUNDS AND METHODS FOR MODULATING NUCLEIC ACID SPLICING” (REMIX THERAPEUTICS INC., priority 2021, published 2024)
Where a name gives a salt, the structure may show the parent alone.

How the values were obtained:
Type in all cases: cell-based
HTT mRNA = assay: Splicing RT-qPCR assay, HTT canonical (CJ) and alternative (AJ) junction mRNA; conditions: Homo sapiens, A673 or K562 cells, 24 hours treatment; for IC50: decrease in CJ mRNA; for AC50: increase in AJ mRNA
Protocol: (§1) Compounds described herein were used to modulate RNA transcript abundance in cells. The expression of a target mRNA was measured by detecting the formation of an exon-exon junction in the canonical transcript (CJ). A compound mediated exon-inclusion event was detected by observing an increase in formation of a new junction with an alternative exon (AJ). Real-time qPCR assays were used to detect these splicing switches and interrogate the potency of various compounds towards different target genes. A high-throughput real time quantitative PCR (RT-qPCR) assay was developed to measure these two isoforms of the mRNA (CJ and AJ) for exemplary genes, such as HTT, SMN2, and MYB, together with a control housekeeping gene, GAPDH or GUSB or PPIA, used for normalization. Briefly, the A673 or K562 cell line was treated with various compounds described herein (e.g., compounds of Formula (I)). After treatment, the levels of the HTT, MYB, or SMN2 mRNA targets were determined from each sample of cell lysate by cDNA synthesis followed by qPCR.
(§2) • Cells-to-CT 1-step kit: ThermoFisher A25602, Cells-to-CT lysis reagent: ThermoFisher 4391851C, TaqMan™ Fast Virus 1-Step Master Mix: ThermoFisher 4444436 • GAPDH: VIC-PL, ThermoFisher 4326317E (Assay: Hs99999905_ml)—used for K562/suspension cell lines • GUSB: VIC-PL, ThermoFisher 4326320E (Assay: Hs99999908_ml)—used for K562/suspension cell lines • PPIA: VIC-PL, ThermoFisher 4326316E (Assay: Hs99999904_ml)—used for A673/adherent cell lines
(§3) The A673 cell line was cultured in DMEM with 10% FBS. Cells were diluted with full growth media and plated in a 96-well plate (15,000 cells in 100 ul media per well). The plate was incubated at 37° C. with 5% CO2 for 24 hours to allow cells to adhere. An 11-point 3-fold serial dilution of the compounds was made in DMSO then diluted in media in an intermediate plate. Compounds were transferred from the intermediate plate to the cell plate with the top dose at a final concentration of 10 uM in the well. Final DMSO concentration was kept at or below 0.25%. The cell plate was returned to the incubator at 37° C. with 5% CO2 for an additional 24 hours.
(§4) The K562 cell line was cultured in IMDM with 10% FBS. For K562, cells were diluted with full growth media and plated in either a 96-well plate (50,000 cells in 50 uL media per well) or a 384-well plate (8,000-40,000 cells in 45 uL media per well). An 11-point 3-fold serial dilution of the compounds were made in DMSO then diluted in media in an intermediate plate. Compound was transferred from the intermediate plate to the cell plate with the top dose at a final concentration of 10 uM in the well. Final DMSO concentration was kept at or below 0.25%. Final volume was 100 uL for 96-well plate and 50 uL for 384-well plate. The cell plate was then placed in an incubator at 37° C. with 5% CO2 for 24 hours.
(§5) The cells were then gently washed with 50 uL-100 uL cold PBS before proceeding to addition of lysis buffer. 30 uL-50 μL of room temperature lysis buffer with DNAse I (and optionally RNAsin) was added to each well. Cells were shaken/mixed thoroughly at room temperature for 5-10 minutes for lysis to take place and then 3 uL-5 μL of room temperature stop solution was added and wells were shaken/mixed again. After 2-5 minutes, the cell lysate plate was transferred to ice for RT-qPCR reaction setup. The lysates could also be frozen at −80° C. for later use.
(§6) In some cases, a direct lysis buffer was used. An appropriate volume of 3×lysis buffer (10 mM Tris, 150 mM NaCl, 1.5%-2.5% Igepal and 0.1-1 U/uL RNAsin, pH 7.4) was directly added to either K562 or A673 cells in media and mixed by pipetting 3 times. The plates were then incubated at room temperature with shaking/rocking for 20-50 minutes to allow for lysis to take place. After this time, the cell lysate plate was transferred to ice to set up for the RT-qPCR reactions. The lysates could also be frozen at −80° C. for later use. […]

MYB CJ mRNA = assay: Gene panel canonical junction qPCR assay, MYB; conditions: Homo sapiens, larger gene panel, read-out: MYB IC50 (decrease in CJ mRNA levels)
Protocol: as §1, §3, §4
(§7) The data analysis was performed by first determining the ΔCt vs the housekeeper gene. This ΔCt was then normalized against the DMSO control (ΔΔCt) and converted to RQ (relative quantification) using the 2^(−ΔΔCt) equation. The RQ were then converted to a percentage response by arbitrarily setting an assay window of 3.5 and 4.0 ΔCt for HTT-CJ and MYB-CJ respectively and an assay window of 9 and 3 ΔCt for HTT-AJ and MYB-AJ in 96 well format (50,000 K562 cells/well and 15,000 A673 cells per well) and an assay window of 3 and 4 ΔCt for HTT-CJ and MYB-CJ respectively and an assay window of 5 and 3 ΔCt for HTT-AJ and MYB-AJ respectively in 384 well format (8,000 K562 cells/well example). […] The percentage response was then fitted to the 4 parametric logistic equation to evaluate the concentration dependence of compound treatment. The increase in AJ mRNA is reported as AC50 (compound concentration having […] in AJ increase) while the decrease in CJ mRNA levels is reported as IC50 (compound concentration having 50% response in CJ decrease).
(§8) Additional studies were carried out for a larger panel of genes using the protocol provided above. The junction between flanking upstream and downstream exons was used to design canonical junction qPCR assays. At least one of the forward primer, reverse primer or the CY5-labeled 5′ nuclease probe (with 3′ quencher such as ZEN/Iowa Black FQ) was designed to overlap with the exon junction to capture the CJ mRNA transcript. […]

SMN2 CJ mRNA = assay: Gene panel canonical junction qPCR assay, SMN2; conditions: Homo sapiens, larger gene panel, read-out: SMN2 IC50 (decrease in CJ mRNA levels)
Protocol: as §1, §3, §4, §7, §8

Target C CJ mRNA = assay: Gene panel canonical junction qPCR assay, Target C; conditions: Homo sapiens, larger gene panel, read-out: Target C IC50 (decrease in CJ mRNA levels)
Protocol: as §1, §3, §4, §7, §8

MYB mRNA = assay: Splicing RT-qPCR assay, MYB canonical (CJ) and alternative (AJ) junction mRNA; conditions: Homo sapiens, A673 or K562 cells, 24 hours treatment; for IC50: decrease in CJ mRNA; for AC50: increase in AJ mRNA
Protocol: as §1, §2, §3, §4, §5, §6

HTT CJ mRNA = assay: Gene panel canonical junction qPCR assay, HTT; conditions: Homo sapiens, larger gene panel, read-out: HTT IC50 (decrease in CJ mRNA levels)
Protocol: as §1, §3, §4, §7, §8

Structure (SMILES) | IC50 (HTT mRNA) [µM] | AC50 (HTT mRNA) [µM] | IC50 (MYB CJ mRNA) [µM] | IC50 (SMN2 CJ mRNA) [µM] | IC50 (Target C CJ mRNA) [µM] | IC50 (MYB mRNA) [µM] | AC50 (MYB mRNA) [µM] | IC50 (HTT CJ mRNA) [µM]
Cc1cc(-c2nn3c(=O)cc(N4CCN(C)CC4)nc3s2)cc2cn(C)nc12 [Compound 210, 2-(2,7-dimethyl-2H-indazol-5-yl)-7-(4-methylpiperazin-1-yl)-5H-[1,3,4]thiadiazolo[3,2-a]pyrimidin-5-one] | 1 to 10 | 1 to 10 | 1 to 10 | 1 to 10 | 1 to 10 | 1 to 10 | 1 to 10 | 1 to 10
Cc1cn2nc(-c3cc(=O)n4cc(N5CCNC6(CC6)C5)sc4n3)cc(C)c2n1 [Compound 211, 7-(2,8-dimethylimidazo[1,2-b]pyridazin-6-yl)-2-(4,7-diazaspiro[2.5]octan-7-yl)-5H-thiazolo[3,2-a]pyrimidin-5-one] | 1 to 10 | 1 to 10 | 1 to 10 | 0.1 to 1 | 1 to 10 | 1 to 10 | 0.1 to 1 | 1 to 10
Cc1cn2nc(-c3cn4c(=O)cc(N5CCNC6(CC6)C5)nc4s3)cc(C)c2n1 [Compound 212, 2-(2,8-dimethylimidazo[1,2-b]pyridazin-6-yl)-7-(4,7-diazaspiro[2.5]octan-7-yl)-5H-thiazolo[3,2-a]pyrimidin-5-one] | 1 to 10 | 1 to 10 | 1 to 10 | 1 to 10 | 1 to 10 | 1 to 10 | 1 to 10 | 1 to 10
Cc1cn2cc(-c3cn4c(=O)cc(N5CCNCC5)nc4s3)cc(F)c2n1 [Compound 213, 2-(8-fluoro-2-methylimidazo[1,2-a]pyridin-6-yl)-7-(piperazin-1-yl)-5H-thiazolo[3,2-a]pyrimidin-5-one] | > 10 | > 10 | > 10 | 1 to 10 | > 10 | > 10 | > 10 | > 10
Cc1cn2cc(-c3nn4c(=O)cc(N5CCNCC5)nc4s3)cc(F)c2n1 [Compound 214, 2-(8-fluoro-2-methylimidazo[1,2-a]pyridin-6-yl)-7-(piperazin-1-yl)-5H-[1,3,4]thiadiazolo[3,2-a]pyrimidin-5-one] | 1 to 10 | > 10 | 1 to 10 | 0.1 to 1 | > 10 | 1 to 10 | 1 to 10 | 1 to 10
Cc1cn2cc(-c3nn4c(=O)cc(N(C)C5CC(C)(C)NC(C)(C)C5)nc4s3)cc(F)c2n1 [Compound 215, 2-(8-fluoro-2-methylimidazo[1,2-a]pyridin-6-yl)-7-(methyl(2,2,6,6-tetramethylpiperidin-4-yl)amino)-5H-[1,3,4]thiadiazolo[3,2-a]pyrimidin-5-one] | 1 to 10 | 1 to 10 | 1 to 10 | 0.1 to 1 | 1 to 10 | 1 to 10 | 1 to 10 | 1 to 10
Cc1cn2cc(-c3nn4c(=O)cc(N5CCNC6(CC6)C5)nc4s3)cc(F)c2n1 [Compound 216, 2-(8-fluoro-2-methylimidazo[1,2-a]pyridin-6-yl)-7-(4,7-diazaspiro[2.5]octan-7-yl)-5H-[1,3,4]thiadiazolo[3,2-a]pyrimidin-5-one] | 1 to 10 | 1 to 10 | 1 to 10 | 1 to 10 | 1 to 10 | 1 to 10 | 1 to 10 | 1 to 10
Cc1cn2cc(-c3nn4c(=O)cc(N5CCN(C)CC5)nc4s3)cc(F)c2n1 [Compound 217, 2-(8-fluoro-2-methylimidazo[1,2-a]pyridin-6-yl)-7-(4-methylpiperazin-1-yl)-5H-[1,3,4]thiadiazolo[3,2-a]pyrimidin-5-one] | 1 to 10 | 1 to 10 | 1 to 10 | 1 to 10 | 1 to 10 | 1 to 10 | 1 to 10 | 1 to 10
Cc1cn2cc(-c3nn4c(=O)cc(N5CCN(C)C6(CC6)C5)nc4s3)cc(F)c2n1 [Compound 218, 2-(8-fluoro-2-methylimidazo[1,2-a]pyridin-6-yl)-7-(4-methyl-4,7-diazaspiro[2.5]octan-7-yl)-5H-[1,3,4]thiadiazolo[3,2-a]pyrimidin-5-one] | 1 to 10 | 1 to 10 | 1 to 10 | 1 to 10 | 1 to 10 | 1 to 10 | 1 to 10 | 1 to 10
Cn1cc2cc(-n3cnc4nc(N5CCNCC5)sc4c3=O)ccc2n1 [Compound 225, 6-(2-methyl-2H-indazol-5-yl)-2-(piperazin-1-yl)thiazolo[4,5-d]pyrimidin-7(6H)-one] | > 10 | > 10 | > 10 | > 10 | > 10 | > 10 | > 10 | > 10
Cc1cn2cc(-n3cnc4nc(N5CCNCC5)sc4c3=O)cc(F)c2n1 [Compound 226, 6-(8-fluoro-2-methylimidazo[1,2-a]pyridin-6-yl)-2-(piperazin-1-yl)thiazolo[4,5-d]pyrimidin-7(6H)-one] | 0.1 to 1 | 0.1 to 1 | 0.1 to 1 | 0.1 to 1 | 0.1 to 1 | 0.1 to 1 | 0.1 to 1 | 0.1 to 1
Cc1cn2cc(-n3cnc4nc(N(C)C5CC(C)(C)NC(C)(C)C5)sc4c3=O)cc(F)c2n1 [Compound 227, 6-(8-fluoro-2-methylimidazo[1,2-a]pyridin-6-yl)-2-(methyl(2,2,6,6-tetramethylpiperidin-4-yl)amino)thiazolo[4,5-d]pyrimidin-7(6H)-one, formate] | > 10 | > 10 | > 10 | > 10 | > 10 | > 10 | > 10 | > 10
